Assay results from PubChem BioAssay AID328 (DTP/NCI, 2004).
Toxic doses and inconclusive results are not listed.

Test system: BDF1 mice, P388 leukemia ip, median survival T/C
Test: NCI In Vivo Anticancer Drug Screen. Data for tumor model P388 Leukemia (intraperitoneal) in B6D2F1 (BDF1) mice
Details: endpoint: median survival time, higher = longer survival
How it was run: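 In tumour-bearing mice, survival after compound treatment is set against the vehicle group and given as a quotient.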

[1] = dose: 100.0 mg/kg/injection, schedule: Q01DX009 (ip), vehicle: Klucel (hydroxypropylcellulose) (HPC)
[2] = dose: 100.0 mg/kg/injection, schedule: Q04DX003 (ip), vehicle: Klucel (hydroxypropylcellulose) (HPC)
[3] = dose: 200.0 mg/kg/injection, schedule: Q01DX009 (ip), vehicle: Klucel (hydroxypropylcellulose) (HPC)
[4] = dose: 200.0 mg/kg/injection, schedule: Q04DX003 (ip), vehicle: Klucel (hydroxypropylcellulose) (HPC)
[5] = dose: 50.0 mg/kg/injection, schedule: Q01DX009 (ip), vehicle: saline with Tween-80
[6] = dose: 100.0 mg/kg/injection, schedule: Q01DX009 (ip), vehicle: saline with Tween-80
[7] = dose: 200.0 mg/kg/injection, schedule: Q01DX009 (ip), vehicle: saline with Tween-80
[8] = dose: 100.0 mg/kg/injection, schedule: Q04DX003 (ip), vehicle: saline with Tween-80
[9] = dose: 200.0 mg/kg/injection, schedule: Q04DX003 (ip), vehicle: saline with Tween-80
[10] = dose: 400.0 mg/kg/injection, schedule: Q04DX003 (ip), vehicle: saline with Tween-80

Q: What does the source list for CCCCC(I)C(C)(C)[n+]1ccccc1 (stereo not drawn)?
A: T/C (dose: 3.12 mg/kg/injection, schedule: Q04DX003 (ip), vehicle: saline with Tween-80): 100 % of control; T/C (dose: 6.25 mg/kg/injection, schedule: Q04DX003 (ip), vehicle: saline with Tween-80): 95 % of control; T/C (dose: 12.5 mg/kg/injection, schedule: Q01DX009 (ip), vehicle: saline with Tween-80): 100 % of control; T/C (dose: 12.5 mg/kg/injection, schedule: Q04DX003 (ip), vehicle: saline with Tween-80): 87 % of control; T/C (dose: 25.0 mg/kg/injection, schedule: Q01DX009 (ip), vehicle: saline with Tween-80): 113 % of control; T/C (dose: 25.0 mg/kg/injection, schedule: Q04DX003 (ip), vehicle: saline with Tween-80): 103 % of control; T/C (dose: 50.0 mg/kg/injection, schedule: Q04DX003 (ip), vehicle: saline with Tween-80): 96 % of control

Q: For Cc1ncc(CO)c(C2NOCc3nscc32)c1O (stereo not drawn), which T/C (dose: 7.0 mg/kg/injection, schedule: Q01DX009 (ip), vehicle: Klucel (hydroxypropylcellulose) (HPC)) is on record?
A: 95 % of control

Q: What about the T/C (dose: 11.25 mg/kg/injection, schedule: Q01DX001 (ip), vehicle: saline) of the same molecule?
A: 104 % of control

Q: What about the T/C (dose: 14.0 mg/kg/injection, schedule: Q01DX009 (ip), vehicle: Klucel (hydroxypropylcellulose) (HPC)) of the same molecule?
A: 95 % of control

Q: What about the T/C (dose: 19.0 mg/kg/injection, schedule: Q04DX003 (ip), vehicle: saline) of the same molecule?
A: 95 % of control

Q: What about the T/C (dose: 22.5 mg/kg/injection, schedule: Q01DX001 (ip), vehicle: saline) of the same molecule?
A: 104 % of control

Q: What about the T/C (dose: 45.0 mg/kg/injection, schedule: Q01DX001 (ip), vehicle: saline) of the same molecule?
A: 100 % of control

Q: And the T/C (dose: 45.0 mg/kg/injection, schedule: Q04DX003 (ip), vehicle: saline)?
A: 90 % of control

Q: With Cc1ccc(NC(=O)c2ccc(Cl)cc2)cc1 as the molecule, how does the T/C [1] read?
A: 100 % of control

Q: What about the T/C [2] of the same molecule?
A: 108 % of control

Q: And the T/C [3]?
A: 109 % of control

Q: What about the T/C [4] of the same molecule?
A: 104 % of control

Q: And the T/C (dose: 400.0 mg/kg/injection, schedule: Q01DX009 (ip), vehicle: Klucel (hydroxypropylcellulose) (HPC))?
A: 90 % of control

Q: And the T/C (dose: 400.0 mg/kg/injection, schedule: Q04DX003 (ip), vehicle: Klucel (hydroxypropylcellulose) (HPC))?
A: 104 % of control

Q: With CC[C@H]1CN2CCc3cc(OC)c(OC)cc3[C@@H]2C[C@@H]1C[C@H]1NCCc2c1[nH]c1ccc(O)cc21 as the molecule, how does the T/C (dose: 2.0 mg/kg/injection, schedule: Q04DX003 (ip), vehicle: saline + alcohol) read?
A: 186 % of control

Q: And the T/C (dose: 4.0 mg/kg/injection, schedule: Q04DX003 (ip), vehicle: saline + alcohol)?
A: 183 % of control

Q: How did the T/C [5] turn out when O=C1c2c(Cl)cccc2C(c2ccccc2)c2cccc(Cl)c21 was run?
A: 95 % of control

Q: And the T/C [6]?
A: 104 % of control

Q: And the T/C [7]?
A: 97 % of control

Q: Which results are given for CN(C)CCCNC(CC#N)CCC#N (stereo not drawn)?
A: T/C (dose: 50.0 mg/kg/injection, schedule: Q04DX003 (ip), vehicle: saline): 100 % of control; T/C (dose: 100.0 mg/kg/injection, schedule: Q04DX003 (ip), vehicle: saline): 109 % of control; T/C (dose: 200.0 mg/kg/injection, schedule: Q04DX003 (ip), vehicle: saline): 100 % of control

Q: Which results are given for CS(=O)(=O)OCCN(Cc1ccc(OS(C)(=O)=O)cc1)S(C)(=O)=O?
A: T/C [5]: 102 % of control; T/C [6]: 103 % of control; T/C [8]: 107 % of control; T/C [7]: 110 % of control; T/C [9]: 109 % of control; T/C (dose: 400.0 mg/kg/injection, schedule: Q01DX009 (ip), vehicle: saline with Tween-80): 94 % of control; T/C [10]: 111 % of control

Q: What does the source list for CCN1C(=O)CC(=O)N(CC)C1=S?
A: T/C (dose: 50.0 mg/kg/injection, schedule: Q01DX009 (ip), vehicle: Klucel (hydroxypropylcellulose) (HPC)): 95 % of control; T/C [1]: 91 % of control; T/C [2]: 96 % of control; T/C [3]: 104 % of control; T/C [4]: 92 % of control

Q: With CCOCc1cccc2ccccc12 as the molecule, how does the T/C [8] read?
A: 109 % of control

Q: What about the T/C [9] of the same molecule?
A: 100 % of control

Q: And the T/C [10]?
A: 118 % of control
